Calls of active or inactive are those of the source. No cut-off for these calls is given here.
What was measured:
Salmonella enteritidis [1] = assay: Antimicrobial activity against Salmonella enterica subsp. enterica serovar Enteritidis ATCC 13076 at 25 ug/disk measured after overnight incubation by disk diffusion method; type: functional; conditions: read-out: IZ
Escherichia coli [2] = assay: Antimicrobial activity against Escherichia coli ATCC 11230 at 25 ug/disk measured after overnight incubation by disk diffusion method; type: functional; conditions: read-out: IZ
Staphylococcus aureus [3] = assay: Antimicrobial activity against Staphylococcus aureus ATCC 25923 at 25 ug/disk measured after overnight incubation by disk diffusion method; type: functional; conditions: for zone of inhibition at 25 µg/disc: read-out: IZ
Listeria monocytogenes [4] = assay: Antimicrobial activity against Listeria monocytogenes ATCC 7644 at 25 ug/disk measured after overnight incubation by disk diffusion method; type: functional
Bacillus cereus [5] = assay: Antimicrobial activity against Bacillus cereus RSKK 863 at 25 ug/disk measured after overnight incubation by disk diffusion method; type: functional; conditions: for zone of inhibition at 25 µg/disc: read-out: IZ
Yersinia enterocolitica [6] = assay: Antimicrobial activity against Yersinia enterocolitica ATCC 1501 at 25 ug/disk measured after overnight incubation by disk diffusion method; type: functional; conditions: for zone of inhibition at 25 µg/disc: read-out: IZ
Pseudomonas aeruginosa [7] = assay: Antimicrobial activity against Pseudomonas aeruginosa ATCC 27853 at 25 ug/disk measured after overnight incubation by disk diffusion method; type: functional
Escherichia coli [8] = conditions: ATCC 11230
Description: Antimicrobial activity against Escherichia coli ATCC 11230 measured after overnight incubation by disk diffusion method

Pseudomonas aeruginosa [9] = assay: Antimicrobial activity against Pseudomonas aeruginosa ATCC 27853 measured after overnight incubation by disk diffusion method; type: functional
Salmonella enteritidis [10] = assay: Antimicrobial activity against Salmonella enterica subsp. enterica serovar Enteritidis ATCC 13076 measured after overnight incubation by disk diffusion method; type: functional
Listeria monocytogenes [11] = assay: Antimicrobial activity against Listeria monocytogenes ATCC 7644 measured after overnight incubation by disk diffusion method; type: functional
Bacillus cereus [12] = assay: Antimicrobial activity against Bacillus cereus RSKK 863 measured after overnight incubation by disk diffusion method; type: functional, organism-based
Staphylococcus aureus [13] = assay: Antimicrobial activity against Staphylococcus aureus ATCC 25923 measured after overnight incubation by disk diffusion method; type: functional, organism-based
Yersinia enterocolitica [14] = assay: Antimicrobial activity against Yersinia enterocolitica ATCC 1501 measured after overnight incubation by disk diffusion method; type: functional

| Compound | zone of inhibition at 25 µg/disc (Salmonella enteritidis [1]) [mm] | zone of inhibition at 25 µg/disc (Escherichia coli [2]) [mm] | inhibition zone (IZ) (Staphylococcus aureus [3]) | zone of inhibition at 25 µg/disc (Listeria monocytogenes [4]; read-out: IZ) [mm] | zone of inhibition at 25 µg/disc (Bacillus cereus [5]) [mm] | inhibition zone (IZ) (Yersinia enterocolitica [6]) | inhibition zone (IZ) (Pseudomonas aeruginosa [7]) | zone of inhibition at 25 µg/disc (Staphylococcus aureus [3]) [mm] | inhibition zone (IZ) (Listeria monocytogenes [4]) | inhibition zone (IZ) (Bacillus cereus [5]) | zone of inhibition at 25 µg/disc (Yersinia enterocolitica [6]) [mm] | IZ (Escherichia coli [8]) | inhibition zone (IZ) (Pseudomonas aeruginosa [9]) [mm] | inhibition zone (IZ) (Salmonella enteritidis [10]) [mm] | inhibition zone (IZ) (Listeria monocytogenes [11]) [mm] | inhibition zone (IZ) (Bacillus cereus [12]) | inhibition zone (IZ) (Staphylococcus aureus [13]) | inhibition zone (IZ) (Yersinia enterocolitica [14]) | zone of inhibition at 25 µg/disc (Pseudomonas aeruginosa [7]; read-out: IZ) [mm] |
| --- | --- | --- | --- | --- | --- | --- | --- | --- | --- | --- | --- | --- | --- | --- | --- | --- | --- | --- | --- |
| Cc1ccc([Se]c2nnnn2S(=O)(=O)c2ccc(C)cc2)cc1 | 3.2 | 4.6 | inactive | 5 | 2.8 | inactive | inactive |  |  |  |  |  |  |  |  |  |  |  |  |
| Cc1ccc(S(=O)(=O)n2nnnc2[Se]c2ccc(Cl)cc2)cc1 | 7.8 | 3.2 |  |  |  |  | inactive | 4.8 | inactive | inactive | 3.4 |  |  |  |  |  |  |  |  |
| Cc1ccc(S(=O)(=O)n2nnnc2[Se]c2ccc(Br)cc2)cc1 | 8.2 | 5.4 |  |  |  | inactive | inactive | 6.2 | inactive | inactive |  |  |  |  |  |  |  |  |  |
| Cc1ccnc(NS(=O)(=O)c2ccc(N)cc2)n1 [SULFAMERAZINE] |  |  |  |  |  |  |  |  |  |  |  | inactive | 4.4 | 6.6 | 5.1 | inactive | inactive | 6.1 mm |  |
| Cc1ccc(S(=O)(=O)n2nnnc2[Se]c2ccccc2Cl)cc1 | 7 | 7.4 |  |  | 3.2 |  |  | 4.2 | inactive |  | 5.6 |  |  |  |  |  |  |  | 4.4 |
| Cc1cc(NS(=O)(=O)c2ccc(N)cc2)no1 [SULFAMETHOXAZOLE] |  |  |  |  |  |  |  |  |  |  |  |  | 5.5 | 7.4 | 10.9 | inactive | inactive | inactive |  |
| Cc1ccc(S(=O)(=O)n2nnnc2[Se]c2ccc(I)cc2)cc1 | 5.8 | 3.2 |  |  |  | inactive | inactive | 8.2 | inactive | inactive |  |  |  |  |  |  |  |  |  |
| Cc1ccc(S(=O)(=O)n2nnnc2[Se]c2ccccc2C)cc1 | 2.8 | 5.4 |  |  | 4.4 | inactive | inactive | 5.2 | inactive |  |  |  |  |  |  |  |  |  |  |
